According to the NIST ThermoML archive (doi:10.1016/j.jct.2016.10.010):
“And” between values parts separate entries of the source, which are not always exact repeats. Identical values can stand only once. ± gives the expanded uncertainty stated by the source.

Tests used:
[1] = for vapor or sublimation pressure: Transpiration method; for Normal melting temperature: DTA
[2] = Molar enthalpy of transition or fusion; settings: Crystal; DSC

Which results are given for `CCN1CCN(c2cc3c(cc2F)c(=O)c(C(=O)O)cn3C2CC2)CC1` [Enrofloxacin]?
vapor or sublimation pressure ([1]; 431.15 K, Crystal): 1.79e-06 ± 2.3e-07 kPa; vapor or sublimation pressure ([1]; 433.15 K, Crystal): 2.13e-06 ± 2.6e-07 kPa; vapor or sublimation pressure ([1]; 435.15 K, Crystal): 2.5e-06 ± 3e-07 kPa; vapor or sublimation pressure ([1]; 437.15 K, Crystal): 2.92e-06 ± 3.5e-07 kPa; vapor or sublimation pressure ([1]; 439.15 K, Crystal): 3.41e-06 ± 4e-07 kPa; vapor or sublimation pressure ([1]; 441.15 K, Crystal): 4.04e-06 ± 4.7e-07 kPa; vapor or sublimation pressure ([1]; 443.15 K, Crystal): 4.71e-06 ± 5.4e-07 kPa; vapor or sublimation pressure ([1]; 445.15 K, Crystal): 5.49e-06 ± 6.3e-07 kPa; vapor or sublimation pressure ([1]; 447.15 K, Crystal): 6.61e-06 ± 7.4e-07 kPa; vapor or sublimation pressure ([1]; 449.15 K, Crystal): 7.56e-06 ± 8.5e-07 kPa; vapor or sublimation pressure ([1]; 451.15 K, Crystal): 8.91e-06 ± 9.9e-07 kPa; vapor or sublimation pressure ([1]; 453.15 K, Crystal): 1.035e-05 ± 1.1e-06 kPa; Normal melting temperature ([1]; Crystal): 221.6 ± 0.7 °C; Molar enthalpy of transition or fusion [2]: 7.86 ± 0.287 kcal/mol

Which “vapor or sublimation pressure” value ([1]; 307.15 K, Crystal) does the source give for `O=C(O)c1ccccc1` [benzoic acid] here?
The value was 0.000285 ± 4e-05 kPa.

And the “vapor or sublimation pressure” value ([1]; 323.15 K, Crystal)?
The value was 0.001674 ± 0.00019 kPa.

And the “vapor or sublimation pressure” value ([1]; 338.15 K, Crystal)?
The value was 0.007513 ± 0.00085 kPa.

What about the “vapor or sublimation pressure” value ([1]; 354.15 K, Crystal) of the same compound?
Its value is 0.0316 ± 0.0034 kPa.

Which “vapor or sublimation pressure” value ([1]; 436.15 K, Crystal) does the source give for `O=C(O)c1cn(C2CC2)c2cc(N3CCNCC3)c(F)cc2c1=O` [ciprofloxacin] here?
Its value is 1.95e-06 ± 2.5e-07 kPa.

And the “vapor or sublimation pressure” value ([1]; 438.15 K, Crystal)?
The value was 2.43e-06 ± 3e-07 kPa.

What about the “vapor or sublimation pressure” value ([1]; 440.15 K, Crystal) of the same compound?
Its value is 2.85e-06 ± 3.4e-07 kPa.

What about the “vapor or sublimation pressure” value ([1]; 442.15 K, Crystal) of the same compound?
The value was 3.54e-06 ± 4.2e-07 kPa.

And the “vapor or sublimation pressure” value ([1]; 444.15 K, Crystal)?
The value was 4.3e-06 ± 5e-07 kPa.

What about the “vapor or sublimation pressure” value ([1]; 446.15 K, Crystal) of the same compound?
Its value is 4.97e-06 ± 5.7e-07 kPa.

What about the “vapor or sublimation pressure” value ([1]; 448.15 K, Crystal) of the same compound?
Its value is 5.94e-06 ± 6.8e-07 kPa.

And the “vapor or sublimation pressure” value ([1]; 450.15 K, Crystal)?
The value was 7.09e-06 ± 8e-07 kPa.

And the “vapor or sublimation pressure” value ([1]; 452.15 K, Crystal)?
The value was 8.4e-06 ± 9.5e-07 kPa.

And the “vapor or sublimation pressure” value ([1]; 454.15 K, Crystal)?
The value was 1.045e-05 ± 1.2e-06 kPa.

What about the “vapor or sublimation pressure” value ([1]; 456.15 K, Crystal) of the same compound?
Its value is 1.228e-05 ± 1.4e-06 kPa.

And the “vapor or sublimation pressure” value ([1]; 458.15 K, Crystal)?
Its value is 1.461e-05 ± 1.6e-06 kPa.

And the “vapor or sublimation pressure” value ([1]; 460.15 K, Crystal)?
Its value is 1.764e-05 ± 1.9e-06 kPa.

And the Normal melting temperature ([1]; Crystal)?
Its Normal melting temperature is 270 ± 2.1 °C.

Which “vapor or sublimation pressure” value ([1]; 437.15 K, Crystal) does the source give for `C[C@H]1COc2c(N3CCN(C)CC3)c(F)cc3c(=O)c(C(=O)O)cn1c23` [levofloxacin] here?
Its value is 5.71e-06 ± 6.5e-07 kPa.

What about the “vapor or sublimation pressure” value ([1]; 439.15 K, Crystal) of the same compound?
Its value is 6.66e-06 ± 7.6e-07 kPa.

And the “vapor or sublimation pressure” value ([1]; 441.15 K, Crystal)?
The value was 8.35e-06 ± 9.4e-07 kPa.

What about the “vapor or sublimation pressure” value ([1]; 443.15 K, Crystal) of the same compound?
Its value is 9.72e-06 ± 1.1e-06 kPa.

What about the “vapor or sublimation pressure” value ([1]; 445.15 K, Crystal) of the same compound?
The value was 1.135e-05 ± 1.3e-06 kPa.

What about the “vapor or sublimation pressure” value ([1]; 447.15 K, Crystal) of the same compound?
The value was 1.364e-05 ± 1.5e-06 kPa.

And the “vapor or sublimation pressure” value ([1]; 449.15 K, Crystal)?
Its value is 1.607e-05 ± 1.8e-06 kPa.

And the “vapor or sublimation pressure” value ([1]; 451.15 K, Crystal)?
Its value is 1.952e-05 ± 2.2e-06 kPa.

What about the “vapor or sublimation pressure” value ([1]; 453.15 K, Crystal) of the same compound?
The value was 2.326e-05 ± 2.6e-06 kPa.

And the “vapor or sublimation pressure” value ([1]; 455.15 K, Crystal)?
Its value is 2.722e-05 ± 3e-06 kPa.

What about the “vapor or sublimation pressure” value ([1]; 457.15 K, Crystal) of the same compound?
The value was 3.146e-05 ± 3.4e-06 kPa.

What about the “vapor or sublimation pressure” value ([1]; 459.15 K, Crystal) of the same compound?
The value was 3.689e-05 ± 4e-06 kPa.

And the Normal melting temperature ([1]; Crystal)?
The Normal melting temperature was 233.0 ± 3.1 °C.

And the Normal melting temperature ([1]; Metastable crystal)?
The Normal melting temperature was 227.0 ± 3.1 °C and 230.5 ± 3.1 °C.

What about the “Molar enthalpy of transition or fusion” value [2] of the same compound?
Its value is 5.26 ± 1.05 kcal/mol.

For `CCn1cc(C(=O)O)c(=O)c2cc(F)c(N3CCNCC3)cc21` [norfloxacin], which “vapor or sublimation pressure” value ([1]; 423.15 K, Crystal) is on record?
Its value is 1.3e-06 ± 1.8e-07 kPa.

What about the “vapor or sublimation pressure” value ([1]; 425.15 K, Crystal) of the same compound?
Its value is 1.57e-06 ± 2.1e-07 kPa.

What about the “vapor or sublimation pressure” value ([1]; 427.15 K, Crystal) of the same compound?
The value was 1.86e-06 ± 2.4e-07 kPa.

What about the “vapor or sublimation pressure” value ([1]; 429.15 K, Crystal) of the same compound?
Its value is 2.21e-06 ± 2.7e-07 kPa.

What about the “vapor or sublimation pressure” value ([1]; 431.15 K, Crystal) of the same compound?
The value was 2.66e-06 ± 3.2e-07 kPa.

What about the “vapor or sublimation pressure” value ([1]; 432.15 K, Crystal) of the same compound?
Its value is 2.85e-06 ± 3.4e-07 kPa.

What about the “vapor or sublimation pressure” value ([1]; 434.15 K, Crystal) of the same compound?
Its value is 3.35e-06 ± 3.9e-07 kPa.

And the “vapor or sublimation pressure” value ([1]; 436.15 K, Crystal)?
Its value is 3.92e-06 ± 4.5e-07 kPa.

And the “vapor or sublimation pressure” value ([1]; 438.15 K, Crystal)?
The value was 4.53e-06 ± 5.2e-07 kPa.

And the “vapor or sublimation pressure” value ([1]; 440.15 K, Crystal)?
The value was 5.26e-06 ± 6e-07 kPa.

What about the “vapor or sublimation pressure” value ([1]; 442.15 K, Crystal) of the same compound?
The value was 6.02e-06 ± 6.8e-07 kPa.

What about the “vapor or sublimation pressure” value ([1]; 444.15 K, Crystal) of the same compound?
Its value is 7.01e-06 ± 7.9e-07 kPa.

What about the “vapor or sublimation pressure” value ([1]; 446.15 K, Crystal) of the same compound?
Its value is 8.32e-06 ± 9.3e-07 kPa.

What about the Triple point temperature ([1]; Crystal 2, DSC) of the same compound?
Its Triple point temperature is 468.7 ± 0.8 K.

What about the Normal melting temperature ([1]; Crystal) of the same compound?
Its Normal melting temperature is 220.4 ± 2.2 °C.

What about the “Molar enthalpy of transition or fusion” value [2] of the same compound?
The value was 8.63 ± 1.74 kcal/mol.
